# System: growing hens
# Experiment: Effect of addition of creatine in the feed for growing hens
# Type: in vivo
# Details: 0.2% creatine (0.2 g/kg) added to air-dried feed, growing period of 41 days
# Text: The effect of addition of creatine in the feed for growing hens was studied. It was found here that by adding 0.2% creatine […] to the air-dried feed for a growing period of 41 days, an increase in the final weight of 4% compared with previous feeding methods (without creatine addition) was achieved. […] The feed consumption decreased here by about 2–3% in comparison with previous feeding methods.
smiles,measurement,value
CN(CC(=O)O)C(=N)N [creatine],decrease in feed consumption in comparison with previous feeding methods,2–3%
same,increase in the final weight compared with previous feeding methods (without creatine addition),4%
same,meat quality,improved quality
same,nature of the increase in weight (meat vs fat; lean body mass index),"only by increase in meat, but not by increase in fat"

# From US7226947B1, “Use of creatine as a fat substitute” (AlzChem Trostberg GmbH, priority 1999, dated 2007)
